For this assay, the target named is T1, PARK7 (Homo sapiens, UniProt Q99497).
T1 sequence (Q99497 1-189): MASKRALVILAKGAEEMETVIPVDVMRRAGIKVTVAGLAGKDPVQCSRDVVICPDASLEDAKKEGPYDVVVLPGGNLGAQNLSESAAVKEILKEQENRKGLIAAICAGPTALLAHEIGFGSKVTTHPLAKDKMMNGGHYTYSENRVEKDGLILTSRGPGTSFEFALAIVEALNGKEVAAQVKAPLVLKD
The assay can be described thus: High-throughput screen of the crude compound library, PARK7 fluorescence polarization (FP) assay with FP reagent JYQ-107. In kind it is biochemical. As to conditions: 1.25 µM, crude compound library; read-out: HTS FP assay %Inhibition (1.25 µM). The source says: Therefore, taking JYQ-88 as a starting point, we conducted an optimization to further improve the molecule in terms of inhibitory potency, specificity, and cellular uptake. […] First, a small tailored library was designed and synthesized to investigate whether the introduction of larger, hydrophilic substituents on JYQ-88 would enhance the interaction with the PARK7 pocket. […] The second approach involved the generation of a compound library containing diverse substituents at the azidomethyl position. […] We next performed a high-throughput screen of this crude compound library using our in-house developed PARK7 fluorescence polarization (FP) assay.[15]
(Polarisation of emitted light reports the rotation of a fluorescent probe.)

One may read the inhibition as how much of the control response was suppressed.

On to `N#CN1CC[C@@H](C(=O)Nc2nc3c(s2)CN(C(=O)[C@@H]2C[C@H]2c2ccco2)CC3)C1` [compound 32], for which the inhibition at 1.25 µM worked out at 87%.
With `Cn1ncc(C(=O)N2CCc3nc(NC(=O)[C@@H]4CCN(C#N)C4)sc3C2)c1-n1cccc1` [compound 33], the inhibition at 1.25 µM was determined as 87%.
Next, `N#CN1CC[C@@H](C(=O)Nc2nc3c(s2)CN(C(=O)C2(n4cnnn4)CC2)CC3)C1` [compound 34]: 65.7%.
Take `N#CN1CC[C@@H](C(=O)Nc2nc3c(s2)CN(C(=O)C2CC(OCc4ccccc4)C2)CC3)C1` (stereo partly drawn) [compound 35]: the inhibition at 1.25 µM stood at 78.9%.
Take `N#CN1CC[C@@H](C(=O)Nc2nc3c(s2)CN(C(=O)C2(n4cnnn4)CCOCC2)CC3)C1` [compound 36]: the inhibition at 1.25 µM was found to be 65.2%.
As for `N#CN1CC[C@@H](C(=O)Nc2nc3c(s2)CN(C(=O)c2noc(Cc4ccccc4F)n2)CC3)C1` [compound 37], the inhibition at 1.25 µM worked out at 73.8%.
Next, `CCn1cc(S(=O)(=O)N2CCC(C(=O)N3CCc4nc(NC(=O)[C@@H]5CCN(C#N)C5)sc4C3)CC2)cn1` [compound 38]: 69%; `N#CN1CC[C@@H](C(=O)Nc2nc3c(s2)CN(C(=O)[C@@H]2CCO[C@H]2c2ccccc2)CC3)C1` [compound 39]: 63.3%.
As for `N#CN1CC[C@@H](C(=O)Nc2nc3c(s2)CN(C(=O)c2cnnn2-c2ccccc2Cl)CC3)C1` [compound 40], the inhibition at 1.25 µM is 68.9%.
Take `N#CN1CC[C@@H](C(=O)Nc2nc3c(s2)CN(C(=O)c2cnn(-c4ccncc4)c2)CC3)C1` [compound 41]: the inhibition at 1.25 µM is 66.3%.
On to `N#CN1CC[C@@H](C(=O)Nc2nc3c(s2)CN(C(=O)c2snnc2-c2ccc(Br)cc2)CC3)C1` [compound 42], for which the inhibition at 1.25 µM stood at 69.7%.
Next, `Cc1nc(CN2CCCC2C(=O)N2CCc3nc(NC(=O)[C@@H]4CCN(C#N)C4)sc3C2)no1` (stereo partly drawn) [compound 43]: 71.1%.
For `Cc1oc(-c2ccco2)nc1CC(=O)N1CCc2nc(NC(=O)[C@@H]3CCN(C#N)C3)sc2C1` [compound 44], the inhibition at 1.25 µM amounted to 71.6%.
Take `N#CN1CC[C@@H](C(=O)Nc2nc3c(s2)CN(C(=O)c2ccccc2OCc2ccncc2)CC3)C1` [compound 45]: the inhibition at 1.25 µM is 68.7%.
Turning to `COc1ccc(N2CCN(C(C)C(=O)N3CCc4nc(NC(=O)[C@@H]5CCN(C#N)C5)sc4C3)CC2)cc1` (stereo partly drawn) [compound 46], the inhibition at 1.25 µM is 71.3%.
As for `Cc1cc(C)c(C(=O)N2CCc3nc(NC(=O)[C@@H]4CCN(C#N)C4)sc3C2)c(OCC2CCCCC2)n1` [compound 47], the inhibition at 1.25 µM stood at 75.4%.
As for `N#CN1CC[C@@H](C(=O)Nc2nc3c(s2)CN(C(=O)c2ccc(S(=O)(=O)NC4CC4)cc2)CC3)C1` [compound 48], the inhibition at 1.25 µM is 79.8%.
Consider `N#CN1CC[C@@H](C(=O)Nc2nc3c(s2)CN(C(=O)c2cc(-c4ccc(Cl)cc4)oc2C(F)(F)F)CC3)C1` [compound 49], for which the inhibition at 1.25 µM is 70.8%.
As for `N#CN1CC[C@@H](C(=O)Nc2nc3c(s2)CN(C(=O)c2cccc(S(=O)(=O)Nc4ccc(Cl)cc4)c2)CC3)C1` [compound 50], the inhibition at 1.25 µM is 86.7%.
Take `N#CN1CC[C@@H](C(=O)Nc2nc3c(s2)CN(C(=O)c2ccn(-c4ncc(C(F)(F)F)cc4Cl)n2)CC3)C1` [compound 51]: the inhibition at 1.25 µM turned out to be 85.7%.
In the case of `N#CN1CC[C@@H](C(=O)Nc2nc3c(s2)CN(C(=O)Cc2coc(-c4ccccc4)n2)CC3)C1` [compound 52], the inhibition at 1.25 µM stood at 78.3%.
Next, `Cn1cc(NS(=O)(=O)c2ccsc2C(=O)N2CCc3nc(NC(=O)[C@@H]4CCN(C#N)C4)sc3C2)cn1` [compound 53]: 64.9%.
For `N#CN1CC[C@@H](C(=O)Nc2nc3c(s2)CN(C(=O)CC(NS(=O)(=O)c2ccccc2)c2ccc(Cl)cc2)CC3)C1` (stereo partly drawn) [compound 54], the inhibition at 1.25 µM is 80.8%.
`N#CN1CC[C@@H](C(=O)Nc2nc3c(s2)CN(C(=O)c2c[nH]nc2-c2cccnc2)CC3)C1` [compound 56]: the inhibition at 1.25 µM turned out to be 67.6%.
Next, `N#CN1CC[C@@H](C(=O)Nc2nc3c(s2)CN(C(=O)Cc2ccc(NS(=O)(=O)c4c(Cl)cccc4Cl)cc2)CC3)C1` [compound 57]: 84.9%.
Regarding `N#CN1CC[C@@H](C(=O)Nc2nc3c(s2)CN(C(=O)c2csc(-c4cnccn4)n2)CC3)C1` [compound 58], the inhibition at 1.25 µM was determined as 74.4%.
`N#CN1CC[C@@H](C(=O)Nc2nc3c(s2)CN(C(=O)c2ccc(Oc4cccc(Cl)c4Cl)nn2)CC3)C1` [compound 60]: the inhibition at 1.25 µM is 69.8%.
`CC1CC1C(=O)N1CCCCC1C(=O)N1CCc2nc(NC(=O)[C@@H]3CCN(C#N)C3)sc2C1` (stereo partly drawn) [compound 61]: the inhibition at 1.25 µM turned out to be 70.5%.
Consider `N#CN1CC[C@@H](C(=O)Nc2nc3c(s2)CN(C(=O)c2ncoc2-c2ccco2)CC3)C1` [compound 62], for which the inhibition at 1.25 µM amounted to 78.9%.
Under `COc1cc(C(=O)N2CCc3nc(NC(=O)[C@@H]4CCN(C#N)C4)sc3C2)ccc1OCc1c(C)noc1C` [compound 63] stands 72.7%; under `N#CN1CC[C@@H](C(=O)Nc2nc3c(s2)CN(C(=O)Cc2ccc(S(=O)(=O)N4CCOCC4)s2)CC3)C1` [compound 65], 87%; under `N#CN1CC[C@@H](C(=O)Nc2nc3c(s2)CN(C(=O)c2cc(OCc4ccccc4)ccn2)CC3)C1` [compound 66], 70.6%.
In the case of `CN(Cc1ccco1)c1ccccc1C(=O)N1CCc2nc(NC(=O)[C@@H]3CCN(C#N)C3)sc2C1` [compound 67], the inhibition at 1.25 µM was 72.7%.
`Cc1cccc(C(=O)N2CCCCC2C(=O)N2CCc3nc(NC(=O)[C@@H]4CCN(C#N)C4)sc3C2)n1` (stereo partly drawn) [compound 68]: the inhibition at 1.25 µM stood at 66.5%.
As for `Cc1nc(-c2c(C)c(C)nn(C)c2=O)sc1C(=O)N1CCc2nc(NC(=O)[C@@H]3CCN(C#N)C3)sc2C1` [compound 69], the inhibition at 1.25 µM was found to be 70.5%.
Take `N#CN1CC[C@@H](C(=O)Nc2nc3c(s2)CN(C(=O)c2cnc(COc4ccccc4)s2)CC3)C1` [compound 70]: the inhibition at 1.25 µM was found to be 85.9%.
In the case of `CC1=NN(c2ccc(C(=O)N3CCc4nc(NC(=O)[C@@H]5CCN(C#N)C5)sc4C3)cc2)CC1` [compound 71], the inhibition at 1.25 µM is 69.5%.
Turning to `Cc1oc(Cn2cc(Br)cn2)cc1C(=O)N1CCc2nc(NC(=O)[C@@H]3CCN(C#N)C3)sc2C1` [compound 72], the inhibition at 1.25 µM was 87%.
Consider `Cn1cc(S(=O)(=O)NCc2ccco2)cc1C(=O)N1CCc2nc(NC(=O)[C@@H]3CCN(C#N)C3)sc2C1` [compound 73], for which the inhibition at 1.25 µM worked out at 82.4%.
As to `N#CN1CC[C@@H](C(=O)Nc2nc3c(s2)CN(C(=O)Cc2cccc(OCc4ccccn4)c2)CC3)C1` [compound 74], the inhibition at 1.25 µM amounted to 82.1%.
As for `Cc1nc(-c2ncccn2)sc1C(=O)N1CCc2nc(NC(=O)[C@@H]3CCN(C#N)C3)sc2C1` [compound 75], the inhibition at 1.25 µM turned out to be 72%.
With `N#CN1CC[C@@H](C(=O)Nc2nc3c(s2)CN(C(=O)c2cn(CC(=O)N4CCCC4)nn2)CC3)C1` [compound 77], the inhibition at 1.25 µM stood at 84.1%.
For the molecule `COc1ccccc1-c1nnc(CC(=O)N2CCc3nc(NC(=O)[C@@H]4CCN(C#N)C4)sc3C2)o1` [compound 78], the inhibition at 1.25 µM was 74.3%.
Regarding `Cc1ccc(N(CCC(=O)N2CCc3nc(NC(=O)[C@@H]4CCN(C#N)C4)sc3C2)S(=O)(=O)c2ccccc2)cc1` [compound 79], the inhibition at 1.25 µM amounted to 87.6%.
Take `Cn1nccc1[C@@H]1OCCC[C@H]1C(=O)N1CCc2nc(NC(=O)[C@@H]3CCN(C#N)C3)sc2C1` [compound 80]: the inhibition at 1.25 µM stood at 68.5%.
`N#CN1CC[C@@H](C(=O)Nc2nc3c(s2)CN(C(=O)c2cc(-c4ccc(Br)cc4)ns2)CC3)C1` [compound 81]: the inhibition at 1.25 µM was found to be 80.2%.
As to `Cn1ncc(C2CC2)c1C(=O)N1CCc2nc(NC(=O)[C@@H]3CCN(C#N)C3)sc2C1` [compound 82], the inhibition at 1.25 µM was found to be 71.4%.
As for `N#CN1CC[C@@H](C(=O)Nc2nc3c(s2)CN(C(=O)c2noc(-c4cccc(Cl)c4)n2)CC3)C1` [compound 85], the inhibition at 1.25 µM was 63%.
As to `Cc1c(S(=O)(=O)N2CCC(C(=O)N3CCc4nc(NC(=O)[C@@H]5CCN(C#N)C5)sc4C3)CC2)cnn1C` [compound 86], the inhibition at 1.25 µM was 70.5%.
As for `Cc1nnnn1-c1cc(C(=O)N2CCc3nc(NC(=O)[C@@H]4CCN(C#N)C4)sc3C2)cc(C(F)(F)F)c1` [compound 87], the inhibition at 1.25 µM stood at 86.5%.
`CC1CCN(c2ncc(C(=O)N3CCc4nc(NC(=O)[C@@H]5CCN(C#N)C5)sc4C3)s2)CC1` [compound 88]: the inhibition at 1.25 µM was 77.3%.
`N#CN1CC[C@@H](C(=O)Nc2nc3c(s2)CN(C(=O)C2CCN(c4ccc(=O)[nH]n4)CC2)CC3)C1` [compound 89]: the inhibition at 1.25 µM was determined as 68.2%.
Take `N#CN1CC[C@@H](C(=O)Nc2nc3c(s2)CN(C(=O)c2cnn(CC4CCCCO4)c2)CC3)C1` (stereo partly drawn) [compound 90]: the inhibition at 1.25 µM turned out to be 81.3%.
Next, `Cc1cc(C(=O)N2CCc3nc(NC(=O)[C@@H]4CCN(C#N)C4)sc3C2)c(C2CC2)s1` [compound 91]: 82.6%.
For the molecule `N#CN1CC[C@@H](C(=O)Nc2nc3c(s2)CN(C(=O)c2ccc(-n4ccnc4)nn2)CC3)C1` [compound 92], the inhibition at 1.25 µM stood at 64.4%.
Next, `N#CN1CC[C@@H](C(=O)Nc2nc3c(s2)CN(C(=O)c2c(-c4ccccc4)noc2C(F)F)CC3)C1` [compound 93]: 60.9%; `N#CN1CC[C@@H](C(=O)Nc2nc3c(s2)CN(C(=O)C2(c4ccccc4Cl)CCOCC2)CC3)C1` [compound 94]: 65.7%.

The record behind these values is publication PMC11129182, “Development of Inhibitors, Probes, and PROTAC Provides a Complete Toolbox to Study PARK7 in the Living Cell” (Journal of Medicinal Chemistry, 2024).
